Test results from ChEMBL document CHEMBL1201862, “PubChem BioAssay data set” (2004).
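Following 48 hours of exposure in 96-well plates, responses at five concentrations were used to interpolate endpoints linearly. The concentration for 50% growth inhibition is given as GI50.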 Activity calls are given as the source filed them. No stated cut-off is given here; in the data, active = GI50 up to about 1.1 µM and inactive = higher.

Assays:
Experiment in all cases: NCI anticancer screen, dose series, 48 h
M14 = test system: M14
NCI-H23 = test system: NCI-H23
COLO 205 = test system: COLO 205
SNB-19 = test system: SNB-19
SK-MEL-5 = test system: SK-MEL-5
SF-295 = test system: SF-295
A498 = test system: A498
ACHN = test system: ACHN
HCC 2998 = test system: HCC 2998
BT-549 = test system: BT-549
NCI-H226 = test system: NCI-H226
PC-3 = test system: PC-3
RXF 393 = test system: RXF 393
OVCAR-3 = test system: OVCAR-3
RPMI-8226 = test system: RPMI-8226
NCI/ADR-RES = test system: NCI/ADR-RES
UO-31 = test system: UO-31
LOX IMVI = test system: LOX IMVI
MOLT-4 = test system: MOLT-4
EKVX = test system: EKVX
T47D = test system: T47D
MDA-MB-435 = test system: MDA-MB-435
OVCAR-8 = test system: OVCAR-8
MDA-MB-231 = test system: MDA-MB-231
786-0 = test system: 786-0
KM12 = test system: KM12
SF-268 = test system: SF-268
DU-145 = test system: DU-145
SN12C = test system: SN12C
SF-539 = test system: SF-539
HCT-116 = test system: HCT-116
IGROV-1 = test system: IGROV-1
CAKI-1 = test system: CAKI-1
OVCAR-4 = test system: OVCAR-4
UACC-62 = test system: UACC-62
HCT-15 = test system: HCT-15
MDA-N = test system: MDA-N
U-251 = test system: U-251
MCF7 = test system: MCF7
HOP-92 = test system: HOP-92
SK-OV-3 = test system: SK-OV-3
TK-10 = test system: TK-10
OVCAR-5 = test system: OVCAR-5
HL-60 = test system: HL-60
SR = test system: SR
Hs-578T = test system: Hs-578T
UACC-257 = test system: UACC-257
SNB-75 = test system: SNB-75
HOP-62 = test system: HOP-62
SK-MEL-2 = test system: SK-MEL-2
NCI-H460 = test system: NCI-H460
NCI-H522 = test system: NCI-H522
SW-620 = test system: SW-620
K562 = test system: K562
CCRF-CEM = test system: CCRF-CEM
Malme-3M = test system: Malme-3M
HT-29 = test system: HT-29
SK-MEL-28 = test system: SK-MEL-28
A549 = test system: A549

Measured: GI50

O=C1CSC2=NC3=C(COC/C3=C\c3ccc(F)cc3)C(c3ccc(F)cc3)N12 (stereo not drawn)
37.2 µM: HCT-15
inactive: M14 35.5 µM | NCI-H23 73.1 µM | COLO 205 42.8 µM | SNB-19 94.2 µM | SK-MEL-5 71.4 µM | SF-295 52.5 µM | A498 > 100 µM | ACHN 71 µM | HCC 2998 48.6 µM | BT-549 > 100 µM | NCI-H226 > 100 µM | PC-3 34.8 µM | RXF 393 59.8 µM | OVCAR-3 49.7 µM | RPMI-8226 14.9 µM | NCI/ADR-RES 58.9 µM | UO-31 38.4 µM | LOX IMVI 52 µM | MOLT-4 20.6 µM | EKVX 83.8 µM | T47D 58.5 µM | MDA-MB-435 65.2 µM | OVCAR-8 55.7 µM | MDA-MB-231 > 100 µM | 786-0 59.4 µM | KM12 75 µM | SF-268 > 100 µM | DU-145 35.2 µM | SN12C > 100 µM | SF-539 > 100 µM | HCT-116 35.9 µM | IGROV-1 86.7 µM | CAKI-1 > 100 µM | OVCAR-4 50.9 µM | UACC-62 > 100 µM | MDA-N 41.7 µM | U-251 63.7 µM | MCF7 42 µM | HOP-92 93.5 µM | SK-OV-3 > 100 µM | TK-10 99.5 µM | OVCAR-5 > 100 µM | HL-60 12.6 µM | SR 20.7 µM | Hs-578T > 100 µM | UACC-257 > 100 µM | SNB-75 > 100 µM | HOP-62 > 100 µM | SK-MEL-2 99.5 µM | NCI-H460 38.1 µM | NCI-H522 28.2 µM | SW-620 46 µM | K562 34.4 µM | CCRF-CEM 25.8 µM

COc1cc(C(O)CCBr)c(OC)cc1C (stereo not drawn)
7.4 µM: HCT-15
inactive: M14 4.6 µM | NCI-H23 14.3 µM | COLO 205 17.6 µM | SNB-19 > 75.5 µM | SK-MEL-5 6.18 µM | SF-295 36 µM | A498 > 64.6 µM | ACHN 35.7 µM | BT-549 23 µM | NCI-H226 32.9 µM | Malme-3M 22.5 µM | HT-29 6.17 µM | PC-3 6.65 µM | RXF 393 37.2 µM | OVCAR-3 13.4 µM | RPMI-8226 6.73 µM | NCI/ADR-RES 7.43 µM | UO-31 26.3 µM | LOX IMVI 8.95 µM | EKVX > 100 µM | T47D > 72.1 µM | MDA-MB-435 4.3 µM | OVCAR-8 6.97 µM | MDA-MB-231 21.2 µM | 786-0 8.32 µM | KM12 29.9 µM | SF-268 31.4 µM | DU-145 43.2 µM | SN12C 16.4 µM | SF-539 8.17 µM | HCT-116 3.93 µM | IGROV-1 24.4 µM | CAKI-1 14.9 µM | OVCAR-4 52.8 µM | UACC-62 14.6 µM | MDA-N 2.79 µM | U-251 33.2 µM | MCF7 4.37 µM | HOP-92 23.6 µM | SK-OV-3 35.3 µM | TK-10 > 66.8 µM | OVCAR-5 > 47.1 µM | HL-60 > 24.7 µM | SR 13 µM | Hs-578T 25.1 µM | SK-MEL-28 24.4 µM | UACC-257 27.7 µM | SNB-75 30.1 µM | HOP-62 28.6 µM | SK-MEL-2 16 µM | NCI-H460 30.5 µM | NCI-H522 27.5 µM | SW-620 3.13 µM | A549 > 100 µM | K562 3.61 µM | CCRF-CEM 3.07 µM

Nc1ccc2c(c1)S(=O)(=O)c1cc(O)ccc1O2
inactive: M14 > 100 µM | NCI-H23 > 100 µM | COLO 205 > 100 µM | SNB-19 > 100 µM | SK-MEL-5 > 100 µM | SF-295 > 100 µM | A498 31.2 µM | ACHN > 100 µM | HCC 2998 > 100 µM | BT-549 45.6 µM | NCI-H226 > 100 µM | HT-29 > 100 µM | PC-3 > 100 µM | RXF 393 48.3 µM | OVCAR-3 > 100 µM | NCI/ADR-RES > 100 µM | UO-31 55.3 µM | LOX IMVI > 100 µM | MOLT-4 > 100 µM | EKVX > 100 µM | T47D > 100 µM | MDA-MB-435 > 100 µM | OVCAR-8 > 100 µM | MDA-MB-231 > 100 µM | 786-0 > 100 µM | KM12 > 100 µM | SF-268 > 100 µM | DU-145 > 100 µM | SN12C > 100 µM | SF-539 > 100 µM | HCT-116 > 100 µM | IGROV-1 > 100 µM | CAKI-1 45.2 µM | OVCAR-4 > 100 µM | UACC-62 > 100 µM | MDA-N > 100 µM | U-251 > 100 µM | MCF7 > 100 µM | HOP-92 > 100 µM | SK-OV-3 > 100 µM | TK-10 > 100 µM | OVCAR-5 > 100 µM | HL-60 > 100 µM | SR 39.7 µM | Hs-578T > 100 µM | SK-MEL-28 > 100 µM | UACC-257 > 100 µM | HOP-62 > 100 µM | SK-MEL-2 > 100 µM | NCI-H460 > 100 µM | NCI-H522 > 100 µM | SW-620 > 100 µM | A549 > 100 µM | K562 > 100 µM | CCRF-CEM > 100 µM
> 100 µM: HCT-15
